# Key:
# Conditions in all cases: 0.0630 kg/ha
# Corn, Field, Zea mays = test: Postemergence herbicidal evaluation, ZEAMX; assay type: in vivo, L.
# Description: (§1) In the tests, seedling plants are grown in jiffy flats for about two weeks. The test compounds are dispersed in 50/50 acetone/water mixtures containing 0.5% TWEEN®20, a polyoxyethylene sorbitan monolaurate surfactant of Atlas Chemical Industries, in sufficient quantities to provide the equivalent of about 0.0157 kg to 0.500 kg per hectare of active compound when applied to the plants through a spray nozzle operating at 40 psi for a predetermined time. After spraying, the plants are placed on greenhouse benches and are cared for in accordance with conventional greenhouse procedures. From four to five weeks after treatment, the seedling plants are examined and rated according to the rating system set forth below. Where more than one test is involved for a given compound, the data are averaged.
# (§2) Results of herbicide evaluation are expressed on a rating scale (0-9). The scale is based upon a visual observation of plant stand, vigor, malformation, size, chlorosis and overall plant appearance as compared with a control.
# [1] = test system: Ragweed, Common, Ambrosia artemisifolia; test: Postemergence herbicidal evaluation, AMBEL; assay type: in vivo, L.
# Description: as §1, §2
# [2] = test system: Soybean, Williams, Glycine max; test: Postemergence herbicidal evaluation, GLXMAW; assay type: in vivo, (L.) Merr. cv Williams
# Description: as §1, §2
# [3] = test system: Wheat, Winter, cv Riband, Triticum aestivum; test: Postemergence herbicidal evaluation, TRZAWR; assay type: in vivo
# Description: as §1, §2
# [4] = test system: Rice, Tebonnet, Oryza sativa; test: Postemergence herbicidal evaluation, ORYSAT; assay type: in vivo, (L.) Tebonnet
# Description: as §1, §2
# [5] = test system: Foxtail, Green, Setaria viridis; test: Postemergence herbicidal evaluation, SETVI; assay type: in vivo, (L.) Beau
# Description: as §1, §2
# [6] = test system: Barnyardgrass, Echinochloa crus-galli; test: Postemergence herbicidal evaluation, ECHCG; assay type: in vivo, (L.) Beau
# Description: as §1, §2
# [7] = test system: Velvetleaf, Abutilon theophrasti; test: Postemergence herbicidal evaluation, ABUTH; assay type: in vivo, Medic.
# Description: as §1, §2
# [8] = test system: Morningglory, Ivyleaf, Ipomoea hederacea; test: Postemergence herbicidal evaluation, IPOHE; assay type: in vivo, (L.) Jacq.
# Description: as §1, §2
# [9] = test system: Lambsquarters, Common, Chenopodium album; test: Postemergence herbicidal evaluation, CHEAL; assay type: in vivo, L.
# Description: as §1, §2
# Galium, Galium aparine = test: Postemergence herbicidal evaluation, GALAP; assay type: in vivo
# Description: as §1, §2
# [10] = test system: Sicklepod, Cassia obtusifolia; test: Postemergence herbicidal evaluation, CASOB; assay type: in vivo, L.
# Description: as §1, §2
Compound,"herbicide rating (0-9) (Corn, Field, Zea mays)",herbicide rating (0-9) [1],herbicide rating (0-9) [2],herbicide rating (0-9) [3],herbicide rating (0-9) [4],herbicide rating (0-9) [5],herbicide rating (0-9) [6],herbicide rating (0-9) [7],herbicide rating (0-9) [8],herbicide rating (0-9) [9],"herbicide rating (0-9) (Galium, Galium aparine)",herbicide rating (0-9) [10]
"C=CCOC(=O)C(C)Oc1ccc(C)cc1-c1nsc2ccc(-n3c(=O)cc(C(F)(F)F)n(C)c3=O)cc12 (stereo not drawn) [Compound 78, Allyl 2-{{2-{5-[3,6-dihydro-3-methyl-2,6-dioxo-4-(trifluoromethyl)-1(2H)-pyrimidinyl]-1,2-benzisothiazol-3-yl}-p-tolyl}oxy}propionate]",7.5,9.0,6.5,9.0,7.0,9.0,9.0,9.0,9.0,9.0,7.0,3.0
"Cc1ccc(OCC(=O)OC(C)C(C)(C)C)c(-c2nsc3ccc(-n4c(=O)cc(C(F)(F)F)n(C)c4=O)cc23)c1 (stereo not drawn) [Compound 85, 1,2,2-Trimethylpropyl {{2-{5-[3,6-dihydro-3-methyl-2,6-dioxo-4-(trifluoromethyl)-1(2H)-pyrimidinyl]-1,2-benzisothiazol-3-yl}-p-tolyl}oxy}acetate]",6.5,2.0,7.0,5.5,5.0,8.0,7.0,5.0,9.0,5.0,5.0,2.0
"C#CC(C)OC(=O)COc1ccc(C)cc1-c1nsc2ccc(-n3c(=O)cc(C(F)(F)F)n(C)c3=O)cc12 (stereo not drawn) [Compound 74, 1-Methyl-2-propynyl {{2-{5-[3,6-dihydro-3-methyl-2,6-dioxo-4-(trifluoromethyl)-1(2H)-pyrimidinyl]-1,2-benzisothiazol-3-yl}-p-tolyl}oxy}acetate]",8.5,9.0,9.0,7.5,7.0,9.0,9.0,9.0,9.0,9.0,9.0,9.0
"Cc1ccc(OCC(=O)OC2CCCC2)c(-c2nsc3ccc(-n4c(=O)cc(C(F)(F)F)n(C)c4=O)cc23)c1 [Compound 84, Cyclopentyl {{2-{5-[3,6-dihydro-3-methyl-2,6-dioxo-4-(trifluoromethyl)-1(2H)-pyrimidinyl)-1,2-benzisothiazol-3-yl}-p-tolyl}oxy}acetate]",7.5,9.0,8.0,8.0,8.0,9.0,9.0,9.0,9.0,9.0,9.0,4.0
CC#CCOC(=O)COc1ccc(C)cc1-c1nsc2ccc(-n3c(=O)cc(C(F)(F)F)n(C)c3=O)cc12 [Compound 75],7.5,9.0,9.0,9.0,6.5,9.0,9.0,9.0,9.0,9.0,7.0,7.0
Cc1ccc(OCC(=O)OCC#Cc2ccccc2)c(-c2nsc3ccc(-n4c(=O)cc(C(F)(F)F)n(C)c4=O)cc23)c1 [Compound 73],6.0,9.0,9.0,4.5,5.5,9.0,9.0,9.0,9.0,9.0,9.0,9.0
"C#CCOC(=O)C(C)Oc1ccc(C)cc1-c1nsc2ccc(-n3c(=O)cc(C(F)(F)F)n(C)c3=O)cc12 (stereo not drawn) [Compound 77, 2-Propynyl 2-{{2-{5-[3,6-dihydro-3-methyl-2,6-dioxo-4-(trifluoromethyl)-1(2H)-pyrimidinyl]-1,2-benzisothiazol-3-yl}-p-tolyl}oxy}propionate]",8.0,9.0,7.0,9.0,9.0,9.0,9.0,9.0,9.0,9.0,9.0,4.0
"Cc1ccc(OCC(=O)OC(C)(C)C)c(-c2nsc3ccc(-n4c(=O)cc(C(F)(F)F)n(C)c4=O)cc23)c1 [Compound 68, tert-Butyl {{2-{5-[3,6-dihydro-3-methyl-2,6-dioxo-4-(trifluoromethyl)-1(2H)-pyrimidinyl]-1,2-benzisothiazol-3-yl}-p-tolyl}oxy}acetate]",5.0,5.0,5.5,3.5,2.0,9.0,5.0,6.0,9.0,9.0,2.0,9.0
